# According to patent US20090281110A1, “Method of Treatment” (priority 2006, published 2009):
# Key:
# [1] = molecular target: T1, recombinant human IL-8 type α and β receptors (Homo sapiens, UniProt P25025); assay: Receptor Binding Assay ([125I] IL-8 / GRO-α displacement, CHO membranes); conditions: receptor subtype (IL-8Rα or IL-8Rβ) not given
# T1 sequence (P25025 1-360): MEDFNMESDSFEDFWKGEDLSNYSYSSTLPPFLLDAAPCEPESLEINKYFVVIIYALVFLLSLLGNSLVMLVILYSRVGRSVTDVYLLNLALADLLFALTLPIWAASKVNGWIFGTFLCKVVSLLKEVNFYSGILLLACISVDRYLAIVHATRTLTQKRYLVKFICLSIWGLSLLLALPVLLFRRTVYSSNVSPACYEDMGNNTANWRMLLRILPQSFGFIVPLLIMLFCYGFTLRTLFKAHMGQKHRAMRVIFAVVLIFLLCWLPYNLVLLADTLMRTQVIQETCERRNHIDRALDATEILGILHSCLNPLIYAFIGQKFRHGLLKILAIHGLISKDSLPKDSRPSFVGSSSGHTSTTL
# [2] = tested on: rat estrogen opposition model; assay: Rat Model of Estrogen Opposition: Uterotrophic Model Assay; assay type: in vivo; conditions: 30 mg/kg/day
# Description: A rat estrogen opposition model (Lundeen, S. G. et al., (2001) Rat Uterine Complement C3 Expression as a Model for Progesterone Receptor Modulators: Characterization of the New Progestin Trimegestone. J. Steroid Biochem. & Mol. biol. 78, 137-143, incorporated herein to the extent required to perform the present assay) was used to determine the efficacy of Example 2f at 30 mg/kg/day. This was a 48 hour rodent model involving a pre-treatment of compound followed by two days of combined estrogen (0.08 mg/kg) and compound treatment. At termination, uteri were removed from the rats weighed and sectioned for downstream biochemical analysis. Estrogen in this model was pro-inflammatory, inducing edema and infiltration of neutrophils into the endometrium causing a 4 to 5 fold increase in uterine weight. A significant effect of compound treatment on uterine weight was considered approximately a 25% decrease.
SMILES,IC50 [1],gene expression level of MMP-9 reduced compared to vehicle control and estrogen treated rats ([2]; rat uterus) [%],gene expression of C3 reduced compared to estrogen only treatment ([2]; rat uterus) [%],gene expression of cfos reduced compared to estrogen only treatment ([2]; rat uterus) [%],"reduced estrogen-induced uterine wet weight ([2]; rat, 48 hour model, estrogen 0.08 mg/kg) [%+/−5%]"
"Cl.O=C(Nc1ccc(Cl)c(S(=O)(=O)N2CCNCC2)c1O)Nc1cccc(F)c1Cl [Example 1, N-[4-chloro-2-hydroxy-3-(piperazine-1-sulfonyl)phenyl]-N′-(2-chloro-3-fluorophenyl)urea hydrochloride]",about 13 nM,–,–,–,–
"CN1CCN(S(=O)(=O)c2c(Cl)ccc(NC(=O)Nc3cccc(F)c3Cl)c2O)CC1.Cc1ccc(S(=O)(=O)O)cc1 [Example 2f, N-[4-chloro-2-hydroxy-3-(4-methyl-piperazine-1-sulfonyl)-phenyl]-N′-(2-chloro-3-fluorophenyl)-urea p-toluenesulfonate]",–,50,84,50,66
